Experimental data published in patent US20240018146A1, “COMPOSITIONS AND METHODS OF USING THE SAME FOR TREATMENT OF NEURODEGENERATIVE AND MITOCHONDRIAL DISEASE” (MITOKININ, INC., priority 2020, published 2024).
Like-named read-outs stand apart in the source and are kept apart here.

Experiments:
[1] = test system: HeLa MKYP cells; assay: Human mitophagy assay (HeLa mKeima assay, FACS); type: cell-based; details: read-out: Mitophagy induction EC50
Method: Briefly, HeLa MKYP cells were plated at 10,000 cells/well in 96 well plates along with compounds at various concentrations. Following 16 hrs of incubation, cells were treated with 1 uM FCCP/oligomycin for 6 hours, then analyzed via FACS for the presence of mitochondria in lysosomes (as determined by an emissions spectrum shift from the pH-sensitive mtKeima tag).
Briefly, HeLa cells expressing a mitophagy indicator (mtKeima) protein were treated with […] of FCCP and Oligomycin followed by the specified dose of compound, then analyzed by FACS to quantify the percentage of cells undergoing mitophagy.

[2] = test system: HeLa MKYP cells; assay: Cell death measured by DAPI staining, with 1 μM FCCP/oligomycin or no toxin (no FO); type: cell-based
Method: EP-0035985, EP-0037821, EP-0038098, and EP-0038099 in the presence of 1 μM FCCP/oligomycin or with no toxin (no FO) for 6 hrs. H2O2 treatment was performed as a control for cell death as measured by DAPI staining.
EP-0035985, EP-0038461, EP-0038463, and EP-0038503 in the presence of 1 μM FCCP/oligomycin or with no toxin (no FO) for 6.5 hrs. H2O2 treatment was performed as a control for cell death as measured by DAPI staining.
EP-0035985, EP-0038504, EP-0038508, and EP-0038521 in the presence of 1 μM FCCP/oligomycin or with no toxin (no FO) for 6.5 hrs. H2O2 treatment was performed as a control for cell death as measured by DAPI staining.
EP-0035985, EP-0038461, EP-0038463, EP-0038503, EP-0038504, EP-0038508, and EP-0038521 in the presence of 1 μM FCCP/oligomycin or with no toxin (no FO) for 6.5 hrs. H2O2 treatment was performed as a control for cell death as measured by DAPI staining.

| SMILES | EC50 ([1]; Homo sapiens, HeLa) [µM] | Highest safe dose (cytotoxicity; no FO; safe means DAPI+ <20%) [2] [µM] | Max % death with 1 μM FO [2] [%] | EC50 [1] [µM] |
| --- | --- | --- | --- | --- |
| C[C@@H]1CN([C@@H]2CCc3ccccc3[C@H]2Nc2ncnc3[nH]c(C4CC4)cc23)C[C@H](C)O1 (single isomer, unassigned) [EP-0040499] | 5.2 | 25.0 | 4.3 | – |
| Fc1ccc2c(c1)OC[C@@H](N1CCOCC1)[C@@H]2Nc1ncnc2[nH]c(C3CC3)cc12 (single isomer, unassigned) [EP-0040501] | 14.3 | 25.0 | 5.0 | – |
| C[C@H]1CN([C@@H]2CCc3ccccc3[C@H]2Nc2ncnc3[nH]c(C(F)(F)F)cc23)CCO1 (single isomer, unassigned) [EP-0040504] | 9.33 | 25.0 | 2.0 | – |
| Fc1cccc2c1CC[C@H](N1C[C@H]3COC[C@H]3C1)[C@H]2Nc1ncnc2[nH]c(C(F)(F)F)cc12 (single isomer, unassigned) [EP-0040505] | 13.5 | 25.0 | 14.3 | – |
| C[C@H]1CN([C@@H]2CCc3ccccc3[C@H]2Nc2ncnc3[nH]c(C4CC4)cc23)CCO1 (single isomer, unassigned) [EP-0040512] | 12.1 | 25.0 | 26.7 | – |
| Fc1ccc2c(c1)OC[C@H](N1C[C@@H]3COC[C@H]3C1)[C@H]2Nc1ncnc2[nH]c(C(F)(F)F)cc12 (single isomer, unassigned) [EP-0040562] | 1.5 | 25.0 | 7.9 | – |
| Fc1ccc2c(c1)OC[C@H](N1C[C@H]3COC[C@@H]3C1)[C@H]2Nc1ncnc2[nH]c(C(F)(F)F)cc12 (single isomer, unassigned) [EP-0040563] | – | 25.0 | 9.7 | 1.05 |
| Fc1cccc2c1CC[C@H](N1C[C@H]3COC[C@H]3C1)[C@H]2Nc1ncnc2[nH]c(C3CC3)cc12 (single isomer, unassigned) [EP-0040576] | 2.79 | 25.0 | 21.2 | – |
| CN1CCN([C@H]2CCc3ccccc3[C@@H]2Nc2ncnc3[nH]c(C(F)(F)F)cc23)CC1 (single isomer, unassigned) [EP-0040578] | 3.54 | 25.0 | 14.4 | – |
| CN1CCN([C@@H]2CCc3ccccc3[C@H]2Nc2ncnc3[nH]c(C(F)(F)F)cc23)CC1 (single isomer, unassigned) [EP-0040579] | 9.02 | 25.0 | 20.3 | – |
| FC(F)(F)c1cc2c(N[C@@H]3c4ccccc4CC[C@H]3C3CCOCC3)ncnc2[nH]1 (single isomer, unassigned) [EP-0040581] | 2.69 | 25.0 | 8.1 | – |
| FC(F)(F)c1cc2c(N[C@H]3c4ccccc4OC[C@@H]3C3CCOCC3)ncnc2[nH]1 (single isomer, unassigned) [EP-0040699] | > 25 | 25.0 | 3.7 | – |
| Fc1ccc2c(c1)CC[C@H](N1C[C@H]3COC[C@H]3C1)[C@H]2Nc1ncnc2[nH]c(C(F)(F)F)cc12 (single isomer, unassigned) [EP-0040720] | 6.25 | 25.0 | 12.1 | – |
| OC1CC2(C1)CN([C@H]1COc3ccccc3[C@@H]1Nc1ncnc3[nH]c(C(F)(F)F)cc13)C2 (single isomer, unassigned) [EP-0040725] | > 25 | 25.0 | 3.4 | – |
| Fc1ccc2c(c1)OC[C@H](N1C[C@H]3COC[C@@H]3C1)[C@H]2Nc1ncnc2[nH]c(C(F)(F)F)cc12 (single isomer, unassigned) [EP-0040747] | – | 25.0 | 5.8 | > 25 |
| Fc1ccc2c(c1)OC[C@H](N1C[C@@H]3COC[C@H]3C1)[C@H]2Nc1ncnc2[nH]c(C3CC3)cc12 (single isomer, unassigned) [EP-0040873] | – | 25.0 | 4.3 | > 25 |
| FC(F)(F)c1cc2c(N[C@H]3c4ccccc4OC[C@@H]3C3CCCOC3)ncnc2[nH]1 (single isomer, unassigned) [EP-0041002] | 6.18 | 25.0 | 4.5 | – |
| FC(F)(F)c1cc2c(N[C@H]3c4ccc(Br)cc4OC[C@@H]3N3CCOCC3)ncnc2[nH]1 (single isomer, unassigned) [EP-0041021] | 3.38 | 25.0 | 13.2 | – |
| COC[C@@H]1CCN([C@H]2COc3ccccc3[C@@H]2Nc2ncnc3[nH]c(C(F)(F)F)cc23)C1 (single isomer, unassigned) [EP-0041072] | – | 25.0 | 8.0 | > 25 |
| COC1CN([C@H]2COc3cc(F)ccc3[C@@H]2Nc2ncnc3[nH]c(C(F)(F)F)cc23)C1 (single isomer, unassigned) [EP-0041089] | 1.97 | 25.0 | 10.2 | – |
| COC[C@H]1CCN([C@H]2COc3ccccc3[C@@H]2Nc2ncnc3[nH]c(C(F)(F)F)cc23)C1 (single isomer, unassigned) [EP-0041174] | – | 25.0 | 4.6 | 15.3 |
| [2H]C([2H])([2H])OC1CN([C@H]2COc3ccccc3[C@@H]2Nc2ncnc3[nH]c(C(F)(F)F)cc23)C1 (single isomer, unassigned) [EP-0041248] | 0.49 | 25.0 | 10.5 | – |
| CC1(O)CN([C@@H]2COc3ccccc3[C@H]2Nc2ncnc3[nH]c(C(F)(F)F)cc23)C1 (single isomer, unassigned) [EP-0041264] | > 25 | 25.0 | 2.5 | – |
| OC(C1CCOCC1)C1COc2ccccc2C1Nc1ncnc2[nH]c(C(F)(F)F)cc12 (single isomer, unassigned) [EP-0041269] | – | 25.0 | 2.9 | > 25 |
| OC(C1CCOCC1)C1COc2ccccc2C1Nc1ncnc2[nH]c(C(F)(F)F)cc12 (single isomer, unassigned) [EP-0041270] | – | 25.0 | 11.6 | 0.86 |
| COC1(C)CN(C2COc3ccccc3C2Nc2ncnc3[nH]c(C(F)(F)F)cc23)C1 (single isomer, unassigned) [EP-0041300] | 4.35 | 25.0 | 11.1 | – |
